Strand notation (5' to 3'): a small letter for the sugar, then the base; units joined by * are phosphorothioate-linked, units joined directly phosphodiester-linked; [ ] holds rarer units or linkages, { } end groups; capitals alone tell only the bases. e = 2'-O-(2-methoxyethyl) (MOE); [5mC] = 5-methylcytosine; d = 2'-deoxy (DNA)
Tested on: human Factor 7 mRNA
Test: Antisense inhibition of human Factor 7 mRNA in HepB3 cells, 50 nM antisense oligonucleotide, lipofectin
Format: cell-based
Conditions: for % Inhibition: lipofectin, approximately 24 hours; for % Inhibition of human Factor 7 mRNA levels: gapmers targeted to nucleobases 4868 to 4899 of SEQ ID NO: 1, Table 8
In short: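 Seeding density was 4,000 cells per well. Following roughly 24 hours of oligonucleotide treatment, RNA was extracted and Factor 7 message quantified using the RTS 2927 primer probe set. Levels were corrected for RIBOGREEN® total RNA and expressed against untreated controls.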

[1] = oligonucleotides targeted to nucleobases 14707 to 14732 of SEQ ID NO: 1 (Table 11)
[2] = oligonucleotides targeted to nucleobases 15098 to 15122 of SEQ ID NO: 1 (Table 12)
[3] = oligonucleotides targeted to nucleobases 11830 to 11869 of SEQ ID NO: 1 (Table 9)

## 422119 (antisense eG*e[5mC]*eG*eG*eA*dA*dG*dA*dA*dG*dG*dG*dA*d[5mC]*dG*eG*eA*eA*eG*eG) [compound 422119]
Table 6, 50 nM
  % Inhibition: 39%

## 422120 (antisense e[5mC]*eG*e[5mC]*eG*eG*dA*dA*dG*dA*dA*dG*dG*dG*dA*d[5mC]*eG*eG*eA*eA*eG) [compound 422120]
Table 6, 50 nM
  % Inhibition: 40%

## 422121 (antisense eG*e[5mC]*eG*e[5mC]*eG*dG*dA*dA*dG*dA*dA*dG*dG*dG*dA*e[5mC]*eG*eG*eA*eA) [compound 422121]
Table 6, 50 nM
  % Inhibition: 43%

## 422122 (antisense eA*eG*e[5mC]*eG*e[5mC]*dG*dG*dA*dA*dG*dA*dA*dG*dG*dG*eA*e[5mC]*eG*eG*eA) [compound 422122]
Table 6, 50 nM
  % Inhibition: 24%

## 422123 (antisense eG*eA*eG*e[5mC]*eG*d[5mC]*dG*dG*dA*dA*dG*dA*dA*dG*dG*eG*eA*e[5mC]*eG*eG) [compound 422123]
Table 6, 50 nM
  % Inhibition: 16%

## 422124 (antisense eT*eG*eA*eG*e[5mC]*dG*d[5mC]*dG*dG*dA*dA*dG*dA*dA*dG*eG*eG*eA*e[5mC]*eG) [compound 422124]
Table 6, 50 nM
  % Inhibition: 0%

## 422125 (antisense e[5mC]*eT*eG*eA*eG*d[5mC]*dG*d[5mC]*dG*dG*dA*dA*dG*dA*dA*eG*eG*eG*eA*e[5mC]) [compound 422125]
Table 6, 50 nM
  % Inhibition: 8%

## 422126 (antisense eA*e[5mC]*eT*eG*eA*dG*d[5mC]*dG*d[5mC]*dG*dG*dA*dA*dG*dA*eA*eG*eG*eG*eA) [compound 422126]
Table 6, 50 nM
  % Inhibition: 22%

## 422127 (antisense eT*eA*e[5mC]*eT*eG*dA*dG*d[5mC]*dG*d[5mC]*dG*dG*dA*dA*dG*eA*eA*eG*eG*eG) [compound 422127]
Table 6, 50 nM
  % Inhibition: 17%

## 422128 (antisense eT*eT*eA*e[5mC]*eT*dG*dA*dG*d[5mC]*dG*d[5mC]*dG*dG*dA*dA*eG*eA*eA*eG*eG) [compound 422128]
Table 6, 50 nM
  % Inhibition: 27%

## 422129 (antisense eG*eT*eT*eA*e[5mC]*dT*dG*dA*dG*d[5mC]*dG*d[5mC]*dG*dG*dA*eA*eG*eA*eA*eG) [compound 422129]
Table 6, 50 nM
  % Inhibition: 45%

## 422131 (antisense eA*eG*e[5mC]*e[5mC]*eT*dG*dA*dG*dG*d[5mC]*d[5mC]*dA*dG*d[5mC]*dA*eG*eA*eT*e[5mC]*eA) [compound 422131]
[1]
  % Inhibition (human Factor 7 mRNA levels): 68%

## 422132 (antisense eG*e[5mC]*eA*eG*e[5mC]*d[5mC]*dT*dG*dA*dG*dG*d[5mC]*d[5mC]*dA*dG*e[5mC]*eA*eG*eA*eT) [compound 422132]
[1]
  % Inhibition (human Factor 7 mRNA levels): 54%

## 422133 (antisense eA*eG*e[5mC]*eA*eG*d[5mC]*d[5mC]*dT*dG*dA*dG*dG*d[5mC]*d[5mC]*dA*eG*e[5mC]*eA*eG*eA) [compound 422133]
[1]
  % Inhibition (human Factor 7 mRNA levels): 65%

## 422134 (antisense eG*e[5mC]*eA*e[5mC]*eA*d[5mC]*dA*dT*dG*dG*dA*dG*dT*d[5mC]*dA*eG*e[5mC]*eA*eT*e[5mC]) [compound 422134]
[2]
  % Inhibition (human Factor 7 mRNA levels): 67%

## 422135 (antisense eA*eG*e[5mC]*eA*e[5mC]*dA*d[5mC]*dA*dT*dG*dG*dA*dG*dT*d[5mC]*eA*eG*e[5mC]*eA*eT) [compound 422135]
[2]
  % Inhibition (human Factor 7 mRNA levels): 53%

## 422136 (antisense e[5mC]*eA*eG*e[5mC]*eA*d[5mC]*dA*d[5mC]*dA*dT*dG*dG*dA*dG*dT*e[5mC]*eA*eG*e[5mC]*eA) [compound 422136]
[2]
  % Inhibition (human Factor 7 mRNA levels): 57%

## 422137 (antisense eA*e[5mC]*eA*eG*e[5mC]*dA*d[5mC]*dA*d[5mC]*dA*dT*dG*dG*dA*dG*eT*e[5mC]*eA*eG*e[5mC]) [compound 422137]
[2]
  % Inhibition (human Factor 7 mRNA levels): 45%

## 422138 (antisense eT*e[5mC]*eT*eG*e[5mC]*dA*dG*dG*dA*dG*d[5mC]*dG*dG*d[5mC]*d[5mC]*eT*eA*eA*eA*eT) [compound 422138]
  % Inhibition of human Factor 7 mRNA levels: 70%

## 422139 (antisense eT*eT*e[5mC]*eT*eG*d[5mC]*dA*dG*dG*dA*dG*d[5mC]*dG*dG*d[5mC]*e[5mC]*eT*eA*eA*eA) [compound 422139]
  % Inhibition of human Factor 7 mRNA levels: 66%

## 422141 (antisense eA*eG*eT*eT*e[5mC]*dT*dG*d[5mC]*dA*dG*dG*dA*dG*d[5mC]*dG*eG*e[5mC]*e[5mC]*eT*eA) [compound 422141]
  % Inhibition of human Factor 7 mRNA levels: 64%

## 422143 (antisense e[5mC]*e[5mC]*eG*eA*eG*dT*dT*d[5mC]*dT*dG*d[5mC]*dA*dG*dG*dA*eG*e[5mC]*eG*eG*e[5mC]) [compound 422143]
  % Inhibition of human Factor 7 mRNA levels: 70%

## 422144 (antisense e[5mC]*e[5mC]*e[5mC]*eG*eA*dG*dT*dT*d[5mC]*dT*dG*d[5mC]*dA*dG*dG*eA*eG*e[5mC]*eG*eG) [compound 422144]
  % Inhibition of human Factor 7 mRNA levels: 58%

## 422145 (antisense eG*e[5mC]*e[5mC]*e[5mC]*eG*dA*dG*dT*dT*d[5mC]*dT*dG*d[5mC]*dA*dG*eG*eA*eG*e[5mC]*eG) [compound 422145]
  % Inhibition of human Factor 7 mRNA levels: 57%

## 422146 (antisense eA*eG*e[5mC]*e[5mC]*e[5mC]*dG*dA*dG*dT*dT*d[5mC]*dT*dG*d[5mC]*dA*eG*eG*eA*eG*e[5mC]) [compound 422146]
  % Inhibition of human Factor 7 mRNA levels: 58%

## 422147 (antisense eG*eA*eG*e[5mC]*e[5mC]*d[5mC]*dG*dA*dG*dT*dT*d[5mC]*dT*dG*d[5mC]*eA*eG*eG*eA*eG) [compound 422147]
  % Inhibition of human Factor 7 mRNA levels: 64%

## 422148 (antisense eG*eG*eA*eG*e[5mC]*d[5mC]*d[5mC]*dG*dA*dG*dT*dT*d[5mC]*dT*dG*e[5mC]*eA*eG*eG*eA) [compound 422148]
  % Inhibition of human Factor 7 mRNA levels: 57%

## 422149 (antisense e[5mC]*eA*eT*dG*dG*dT*dG*dA*dT*dG*d[5mC]*dT*dT*d[5mC]*dT*dG*dA*eA*eT*eT) [compound 422149]
Table 13 (microwalk), 50 nM
  % Inhibition: 61%

## 422151 (antisense eT*eG*e[5mC]*dA*dT*dG*dG*dT*dG*dA*dT*dG*d[5mC]*dT*dT*d[5mC]*dT*eG*eA*eA) [compound 422151]
Table 13 (microwalk), 50 nM
  % Inhibition: 68%

## 422153 (antisense e[5mC]*eA*eT*dG*d[5mC]*dA*dT*dG*dG*dT*dG*dA*dT*dG*d[5mC]*dT*dT*e[5mC]*eT*eG) [compound 422153]
Table 13 (microwalk), 50 nM
  % Inhibition: 67%

## 422154 (antisense eT*e[5mC]*eA*dG*dG*dG*d[5mC]*dT*dG*dG*dT*dT*dT*dT*dG*dG*dA*eG*eG*eA) [compound 422154]
[3]
  % Inhibition (human Factor 7 mRNA levels): 31%

## 422155 (antisense eG*eT*e[5mC]*dA*dG*dG*dG*d[5mC]*dT*dG*dG*dT*dT*dT*dT*dG*dG*eA*eG*eG) [compound 422155]
[3]
  % Inhibition (human Factor 7 mRNA levels): 34%

## 422156 (antisense eG*eG*eT*d[5mC]*dA*dG*dG*dG*d[5mC]*dT*dG*dG*dT*dT*dT*dT*dG*eG*eA*eG) [compound 422156]
[3]
  % Inhibition (human Factor 7 mRNA levels): 38%

## 422157 (antisense eT*eG*eG*dT*d[5mC]*dA*dG*dG*dG*d[5mC]*dT*dG*dG*dT*dT*dT*dT*eG*eG*eA) [compound 422157]
[3]
  % Inhibition (human Factor 7 mRNA levels): 49%

## 422158 (antisense eA*eT*eG*dG*dT*d[5mC]*dA*dG*dG*dG*d[5mC]*dT*dG*dG*dT*dT*dT*eT*eG*eG) [compound 422158]
[3]
  % Inhibition (human Factor 7 mRNA levels): 49%

## 422159 (antisense eA*eA*eT*dG*dG*dT*d[5mC]*dA*dG*dG*dG*d[5mC]*dT*dG*dG*dT*dT*eT*eT*eG) [compound 422159]
[3]
  % Inhibition (human Factor 7 mRNA levels): 45%

## 422160 (antisense e[5mC]*eA*eA*dT*dG*dG*dT*d[5mC]*dA*dG*dG*dG*d[5mC]*dT*dG*dG*dT*eT*eT*eT) [compound 422160]
[3]
  % Inhibition (human Factor 7 mRNA levels): 42%

## 422161 (antisense eA*e[5mC]*eA*dA*dT*dG*dG*dT*d[5mC]*dA*dG*dG*dG*d[5mC]*dT*dG*dG*eT*eT*eT) [compound 422161]
[3]
  % Inhibition (human Factor 7 mRNA levels): 53%

## 422162 (antisense eG*eA*e[5mC]*dA*dA*dT*dG*dG*dT*d[5mC]*dA*dG*dG*dG*d[5mC]*dT*dG*eG*eT*eT) [compound 422162]
[3]
  % Inhibition (human Factor 7 mRNA levels): 59%

## 422163 (antisense eA*eG*eA*d[5mC]*dA*dA*dT*dG*dG*dT*d[5mC]*dA*dG*dG*dG*d[5mC]*dT*eG*eG*eT) [compound 422163]
[3]
  % Inhibition (human Factor 7 mRNA levels): 56%

## 422164 (antisense eG*eA*eG*dA*d[5mC]*dA*dA*dT*dG*dG*dT*d[5mC]*dA*dG*dG*dG*d[5mC]*eT*eG*eG) [compound 422164]
[3]
  % Inhibition (human Factor 7 mRNA levels): 64%

## 422165 (antisense eG*eG*eA*dG*dA*d[5mC]*dA*dA*dT*dG*dG*dT*d[5mC]*dA*dG*dG*dG*e[5mC]*eT*eG) [compound 422165]
[3]
  % Inhibition (human Factor 7 mRNA levels): 57%

## 422166 (antisense eA*eG*eG*dA*dG*dA*d[5mC]*dA*dA*dT*dG*dG*dT*d[5mC]*dA*dG*dG*eG*e[5mC]*eT) [compound 422166]
[3]
  % Inhibition (human Factor 7 mRNA levels): 63%

## 422167 (antisense eG*eA*eG*dG*dA*dG*dA*d[5mC]*dA*dA*dT*dG*dG*dT*d[5mC]*dA*dG*eG*eG*e[5mC]) [compound 422167]
[3]
  % Inhibition (human Factor 7 mRNA levels): 53%

## 422168 (antisense eT*eG*eA*dG*dG*dA*dG*dA*d[5mC]*dA*dA*dT*dG*dG*dT*d[5mC]*dA*eG*eG*eG) [compound 422168]
[3]
  % Inhibition (human Factor 7 mRNA levels): 30%

## 422169 (antisense e[5mC]*eT*eG*dA*dG*dG*dA*dG*dA*d[5mC]*dA*dA*dT*dG*dG*dT*d[5mC]*eA*eG*eG) [compound 422169]
[3]
  % Inhibition (human Factor 7 mRNA levels): 56%

## 422170 (antisense eG*e[5mC]*eT*dG*dA*dG*dG*dA*dG*dA*d[5mC]*dA*dA*dT*dG*dG*dT*e[5mC]*eA*eG) [compound 422170]
[3]
  % Inhibition (human Factor 7 mRNA levels): 28%

— patent US9029337B2, “Modulation of factor 7 expression” (Isis Pharmaceuticals, Inc., priority 2007, dated 2015)
